A word on the IC50: it is the concentration that gives 50% inhibition.

The results in this text go back to ChEMBL document CHEMBL1146698, “Phe*-Ala-based pentapeptide mimetics are BACE inhibitors: P2 and P3 SAR” (Bioorg Med Chem Lett, 2004).

One assay addresses Beta-secretase 1 (Homo sapiens, UniProt P56817). Nature of the assay: In vitro inhibition of Beta-secretase-1 in HEK293 (Human Embryonic Kidney) cell line. Format: cell-based.
The subject of the next assay is HEK293. The assay is described as follows: In vitro inhibitory activity against beta-amyloid peptide (Abeta) in HEK293/APP751swe cells. Format: functional, cell-based. The following applies: Homo sapiens.
The next assay addresses T1, Beta-secretase 2 (Homo sapiens, UniProt Q9Y5Z0).
T1 sequence (Q9Y5Z0 whole entry): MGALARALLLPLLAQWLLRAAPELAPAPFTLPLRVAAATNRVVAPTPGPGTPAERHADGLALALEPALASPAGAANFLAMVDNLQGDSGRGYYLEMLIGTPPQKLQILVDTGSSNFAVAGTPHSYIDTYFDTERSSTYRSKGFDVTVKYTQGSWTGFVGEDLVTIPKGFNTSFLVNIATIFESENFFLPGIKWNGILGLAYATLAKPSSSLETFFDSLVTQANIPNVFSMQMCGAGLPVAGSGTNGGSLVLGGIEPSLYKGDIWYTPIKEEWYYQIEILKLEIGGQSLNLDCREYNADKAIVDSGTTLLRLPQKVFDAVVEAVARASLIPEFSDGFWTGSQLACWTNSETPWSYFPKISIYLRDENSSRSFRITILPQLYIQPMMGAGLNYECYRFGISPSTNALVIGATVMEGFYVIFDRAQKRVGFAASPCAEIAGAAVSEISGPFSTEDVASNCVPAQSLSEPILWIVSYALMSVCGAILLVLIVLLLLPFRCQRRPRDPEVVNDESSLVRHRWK
Nature of the assay: Selectivity tested against Beta-secretase 2 (BACE) in human.

Chain of Beta-secretase 1 (P56817 whole entry): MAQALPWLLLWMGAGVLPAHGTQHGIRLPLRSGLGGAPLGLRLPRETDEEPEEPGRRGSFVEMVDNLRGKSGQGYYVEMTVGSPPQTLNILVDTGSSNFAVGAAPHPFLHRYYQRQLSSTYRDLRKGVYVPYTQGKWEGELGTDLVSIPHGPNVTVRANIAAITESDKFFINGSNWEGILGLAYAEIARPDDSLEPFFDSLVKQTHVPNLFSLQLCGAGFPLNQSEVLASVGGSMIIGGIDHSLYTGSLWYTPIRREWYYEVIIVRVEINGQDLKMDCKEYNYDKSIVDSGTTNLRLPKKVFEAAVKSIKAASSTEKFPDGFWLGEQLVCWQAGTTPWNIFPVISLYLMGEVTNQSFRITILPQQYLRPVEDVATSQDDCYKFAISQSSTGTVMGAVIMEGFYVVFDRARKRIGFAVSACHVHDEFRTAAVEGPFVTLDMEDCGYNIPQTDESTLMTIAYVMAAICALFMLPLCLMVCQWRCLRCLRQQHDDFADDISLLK

With `CC(C[C@H](O)[C@H](Cc1ccccc1)NC(=O)[C@H](C)NC(=O)[C@H](CCN(C)C)NC(=O)OC(C)(C)C)C(=O)NC(C(=O)NCc1ccncc1)C(C)C` (single isomer, unassigned), the IC50 at Beta-secretase 1 came to 89000 nM.

Consider `CSCC[C@H](NC(=O)[C@@H](NC(=O)OC(C)(C)C)C(C)C)C(=O)N[C@@H](Cc1ccccc1)[C@@H](O)C[C@@H](C)C(=O)N[C@H](C(=O)NCc1ccccc1)C(C)C`, for which the 50% inhibitory concentration (IC50) in the assay on HEK293 was 22000 nM; on Beta-secretase 1, 28 nM.

`CSCC[C@H](NC(=O)[C@@H](NC(=O)OC(C)(C)C)C(C)C)C(=O)N[C@@H](CC(C)C)[C@@H](O)C[C@@H](C)C(=O)N[C@H](C(=O)NCc1ccccc1)C(C)C` gave an IC50 against Beta-secretase 2 of 500 nM.

Take `CC(C[C@H](O)[C@H](Cc1ccccc1)NC(=O)[C@H](C)NC(=O)[C@H](CC(F)F)NC(=O)OC(C)(C)C)C(=O)NC(C(=O)NCc1ccncc1)C(C)C` (single isomer, unassigned): the IC50 with HEK293 amounted to 400 nM; at Beta-secretase 1 it was 45 nM.

Regarding `CC(C[C@H](O)[C@H](Cc1ccccc1)NC(=O)[C@H](C)NC(=O)[C@H](CC(F)(F)C(F)F)NC(=O)OC(C)(C)C)C(=O)NC(C(=O)NCc1ccncc1)C(C)C` (single isomer, unassigned), the IC50 with HEK293 was 1620 nM; against Beta-secretase 1 it was 281 nM.

On to `CSCC[C@H](NC(=O)[C@@H](NC(=O)OC(C)(C)C)C(C)C)C(=O)N[C@@H](Cc1ccccc1)[C@@H](O)CC(C)C(=O)NC(C(=O)NCc1ccncc1)C(C)C` (single isomer, unassigned), for which the values for the IC50 in the assay with HEK293 and at Beta-secretase 1 were 1700 nM and 70 nM, respectively.

Turning to `CCC[C@H](NC(=O)OC(C)(C)C)C(=O)N[C@@H](C)C(=O)N[C@@H](Cc1ccccc1)[C@@H](O)CC(C)C(=O)NC(C(=O)NCc1ccncc1)C(C)C` (single isomer, unassigned), the values for the 50% inhibitory concentration (IC50) with HEK293 and against Beta-secretase 1 were 1400 nM and 41 nM, respectively.

`CC(C[C@H](O)[C@H](Cc1ccccc1)NC(=O)[C@H](C)NC(=O)[C@H](CN(C)C)NC(=O)OC(C)(C)C)C(=O)NC(C(=O)NCc1ccncc1)C(C)C` (single isomer, unassigned) had an IC50 against Beta-secretase 1 of 2530 nM.

`CC(C)C[C@H](NC(=O)OC(C)(C)C)C(=O)N[C@@H](C)C(=O)N[C@@H](Cc1ccccc1)[C@@H](O)CC(C)C(=O)NC(C(=O)NCc1ccncc1)C(C)C` (single isomer, unassigned): the IC50 came out at 860 nM in the assay with HEK293 and 63 nM against Beta-secretase 1.

In the case of `CC[C@H](NC(=O)OC(C)(C)C)C(=O)N[C@@H](C)C(=O)N[C@@H](Cc1ccccc1)[C@@H](O)CC(C)C(=O)NC(C(=O)NCc1ccncc1)C(C)C` (single isomer, unassigned), the IC50 was 2800 nM with HEK293 and 75 nM against Beta-secretase 1.

Take `CC[C@@H](C)[C@H](NC(=O)OC(C)(C)C)C(=O)N[C@@H](C)C(=O)N[C@@H](Cc1ccccc1)[C@@H](O)CC(C)C(=O)NC(C(=O)NCc1ccncc1)C(C)C` (single isomer, unassigned): the IC50 with HEK293 worked out at 410 nM; against Beta-secretase 1, 42 nM.

On to `COC[C@H](NC(=O)OC(C)(C)C)C(=O)N[C@@H](C)C(=O)N[C@@H](Cc1ccccc1)[C@@H](O)CC(C)C(=O)NC(C(=O)NCc1ccncc1)C(C)C` (single isomer, unassigned), for which the half-inhibitory concentration (IC50) with HEK293 is 4990 nM; against Beta-secretase 1 it was 118 nM.

Take `CC(C[C@H](O)[C@H](Cc1ccccc1)NC(=O)[C@H](C)NC(=O)[C@H](CCCC(F)(F)F)NC(=O)OC(C)(C)C)C(=O)NC(C(=O)NCc1ccncc1)C(C)C` (single isomer, unassigned): the figures for the IC50 in the assay with HEK293 and against Beta-secretase 1 were 13400 nM and 419 nM, respectively.

Take `COCC[C@H](NC(=O)[C@@H](NC(=O)OC(C)(C)C)C(C)C)C(=O)N[C@@H](Cc1ccccc1)[C@@H](O)CC(C)C(=O)NC(C(=O)NCc1ccncc1)C(C)C` (single isomer, unassigned): the IC50 in the assay with HEK293 turned out to be 2900 nM; at Beta-secretase 1 it was 127 nM.

As for `CC(C[C@H](O)[C@H](Cc1ccccc1)NC(=O)C(C)NC(=O)[C@@H](NC(=O)OC(C)(C)C)C(C)C)C(=O)NC(C(=O)NCc1ccncc1)C(C)C` (single isomer, unassigned), the concentration for half-maximal inhibition (IC50) was 48000 nM with HEK293 and 1060 nM against Beta-secretase 1.

Consider `CC(C[C@H](O)[C@H](Cc1ccccc1)NC(=O)[C@H](C)NC(=O)[C@@H](NC(=O)OC(C)(C)C)C(C)C)C(=O)NC(C(=O)NCc1ccncc1)C(C)C` (single isomer, unassigned), for which the IC50 in the assay on HEK293 worked out at 2100 nM; against Beta-secretase 1, 82 nM.

As for `CCC[C@H](NC(=O)OC(C)(C)C)C(=O)N[C@@H](CCSC)C(=O)N[C@@H](Cc1ccccc1)[C@@H](O)CC(C)C(=O)NC(C(=O)NCc1ccncc1)C(C)C` (single isomer, unassigned), the IC50 in the assay on HEK293 is 990 nM; against Beta-secretase 1, 60 nM.

`COCC[C@H](NC(=O)OC(C)(C)C)C(=O)N[C@@H](C)C(=O)N[C@@H](Cc1ccccc1)[C@@H](O)CC(C)C(=O)NC(C(=O)NCc1ccncc1)C(C)C` (single isomer, unassigned): the half-inhibitory concentration (IC50) at Beta-secretase 1 turned out to be 705 nM.
